Consider 27 compounds from US20230096028A1, “BICYCLIC HETEROCYCLYL COMPOUNDS AND USES THEREOF” (Revolution Medicines, Inc., priority 2019, published 2023).

The structures appear in SMILES notation. A value given as a limit tells only on which side of the number the result lay.

The target in assay [1] is T1, SOS1 (Homo sapiens, UniProt Q07889).
T1 construct: SOS1 (Cytoskeleton Inc., Cat. CS-GE02); purchased Cytoskeleton Inc. CS-GE02
T1 sequence (Q07889 564-1049 limits assumed): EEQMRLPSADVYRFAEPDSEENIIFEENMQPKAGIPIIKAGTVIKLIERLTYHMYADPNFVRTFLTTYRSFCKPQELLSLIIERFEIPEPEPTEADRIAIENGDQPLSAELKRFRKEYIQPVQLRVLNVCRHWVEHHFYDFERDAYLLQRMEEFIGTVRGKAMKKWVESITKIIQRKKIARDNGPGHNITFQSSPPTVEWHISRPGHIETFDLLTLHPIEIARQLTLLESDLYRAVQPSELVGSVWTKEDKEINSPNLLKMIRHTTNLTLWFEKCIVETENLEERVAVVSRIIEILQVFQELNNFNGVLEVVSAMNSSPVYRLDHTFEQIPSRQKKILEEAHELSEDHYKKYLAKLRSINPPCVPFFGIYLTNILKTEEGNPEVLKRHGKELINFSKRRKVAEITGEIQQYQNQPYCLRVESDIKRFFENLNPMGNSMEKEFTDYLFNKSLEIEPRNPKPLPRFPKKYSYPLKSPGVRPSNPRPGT
The assay can be described thus: Bodipy-FL-GTP Association Assay (SOS1-mediated exchange of KRAS-4B:GDP to KRAS-4B:GTP). It counts as biochemical. Conditions: SOS1-mediated BODIPY FL GTP exchange on KRAS-4B, 22° C. As for the experimental part:
A low IC50 value for a given compound is indicative of high potency of said compound in inhibiting the guanine nucleotide exchange factor (GEF) activity of SOS1 on KRAS-4B in this assay setting.
Reagents: BODIPY FL GTP (ThermoFisher Scientific, Cat. G12411); KRAS4-B (Cytoskeleton Inc., Cat. CSRS03); SOS1 (Cytoskeleton Inc., Cat. CS-GE02); 2×Assay Buffer: 40 mM Tris-HCl, pH 7.5; 100 mM NaCl; 20 mM MgCl2; 0.1 mg/mL BSA; 0.02% NP-40
Assay Procedure: Test compounds were dissolved in DMSO to create 20 mM master stocks. The stocks were diluted in a 3× dilution series in 100% DMSO to achieve 100× compound stocks. A 1 μl spot of each test compound stock was delivered to two adjacent wells of a 96-well assay plate prior to running the assay. Reaction Mix preparation: The following were mixed in order at room temperature to obtain the “Reaction Mix” (5.75 mL 2× Exchange Buffer; 3.22 mL MilliQ ddH2O; 3 μL 5 mM BODIPY FL GTP; 230 μL 50 μM KRAS-4B; 9.203 mL Total volume. Reaction initiation: 80 μL of Reaction Mix was pipetted into each well of a half-area black 96-well plate (Corning, Cat. 3686) containing either a 1 μL spot of DMSO or a 1 μL spot test compound at the concentrations listed above. 20 μL of 1 μM SOS1 was then added to each well to initiate the reaction. For the no GEF control wells this was replaced with 1× exchange buffer. Kinetic measurement: The reaction was monitored in a SpectraMax M2 Microplate Reader (Molecular Devices) under the following protocol: 5 second rapid circular mixing before first read; 61 readings, 30 seconds apart; Assay temperature: 22° C.; Excitation wavelength: 485 nm; Emission wavelength: 513 nm. Data Analysis: The Vmax values for the SOS1-mediated BODIPY FL GTP exchange curves in the presence of test compounds were normalized to the most dilute test sample columns or DMSO only control wells to give the % Activity for each concentration of test compound. Plots of % Activity vs. the Log 10 of the compound concentration were fit by non-linear regression to a 4-parameter logistic model.

Assay [2] deals with PC-9 cells (EGFR Ex19Del). The assay can be described thus: Potency Assay: pERK (SOS1 pERK IC50 Assay, AlphaLISA SureFire Ultra p-ERK1/2). Conditions: Homo sapiens; PC-9 cells (EGFR Ex19Del), 1 hour incubation, AlphaLISA p-ERK1/2; read-out: SOS1 pERK IC50. The format is cell-based. Put shortly:
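Cellular pERK1/2 by AlphaLISA SureFire Ultra after 1 h compound exposure (37° C., highest concentration 10 μM, 3-fold steps, duplicates) of EGFR Ex19Del PC-9 cells seeded the day before. A 4-parameter fit of signal versus log concentration gives IC50.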
Background: In Alpha technology, singlet oxygen from a donor bead excites a nearby acceptor bead.

Assay [3] deals with T2, SOS1 catalytic domain (residues 564-1049) (Homo sapiens, UniProt Q07889).
T2 sequence (Q07889 564-1049): T1 sequence (Q07889 564-1049 limits assumed)
Briefly: Potency Assay: binding affinity to SOS1 using Surface Plasmon Resonance (SPR). The arrangement: SOS1 catalytic domain (residues 564-1049) immobilized on a sensor chip. Conditions: immobilized SOS1 catalytic domain (residues 564-1049), read-out: SOS1 SPR Equilibrium Kd. In short, it runs like this: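 Kd was obtained by plotting binding response, taken just before association ended, versus compound concentration on a Biacore 8K. Compounds flowed at 50 μL/min over streptavidin-captured avi-SOS1 catalytic domain (~6000 RU), followed by buffer dissociation; HEPES 0.01 M/NaCl 0.15 M/0.05% P20 buffer, double-referenced.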

Assay [4] addresses T2, SOS1 catalytic domain (residues 564-1049). Briefly: Mode of Action Assay: inhibition of SOS1 nucleotide exchange activity (SOS1 TR-FRET IC50 Assay).

The IC50 is the concentration at which inhibition is half-maximal. As for `C[C@@H](Nc1nc(Cl)nc2c1CCN(CC1CCOC1)CC2)c1cc(N)cc(C(F)(F)F)c1` (stereo partly drawn) [Example 11], in assay [1], the IC50 lay in the range of 1 to 5 µM.
Same read-out and setting: the same measure for `C[C@@H](Nc1nc(Cl)nc2c1CN(C(=O)C1CCN(C)CC1)C2)c1cc(N)cc(C(F)(F)F)c1` [Example 18]: below 1 µM.
The same measure, in the same setting: the result for `C[C@@H](Nc1nc(Cl)nc2c1CN([C@H]1CC[C@@H](C(=O)N(C)C)CC1)C2)c1cc(N)cc(C(F)(F)F)c1` [Example 10, cis-4-(4-{[(1R)-1-[3-amino-5-(trifluoromethyl)phenyl]ethyl]amino}-2-chloro-5H,6H,7H-pyrrolo[3,4-d]pyrimidin-6-yl)-N,N-dimethylcyclohexane-1-carboxamide] reads 1 to 5 µM; that for `Cc1nc2c(c(N[C@H](C)c3cc(N)cc(C(F)(F)F)c3)n1)CN(CC1CCOC1)CC2` (stereo partly drawn) [Example 12], below 1 µM; that for `C[C@@H](Nc1nc(Cl)nc2c1CN(C(=O)N1CCOCC1)CC2)c1cc(N)cc(C(F)(F)F)c1` [Example 3, N-[(1R)-1-[3-amino-5-(trifluoromethyl)phenyl]ethyl]-2-chloro-6-(morpholine-4-carbonyl)-5H,6H,7H,8H-pyrido[4,3-d]pyrimidin-4-amine], below 1 µM.
Still for that read-out and setting: the same measure for `C[C@@H](Nc1nc(Cl)nc2c1CN(CC1CCOC1)C2)c1cc(N)cc(C(F)(F)F)c1` (stereo partly drawn) [Example 20]: below 1 µM; for `C[C@@H](Nc1nc(Cl)nc2c1CN([C@H]1CC[C@@H](O)CC1)C2)c1cc(N)cc(C(F)(F)F)c1` [Example 8, cis-4-(4-{[(1R)-1-[3-amino-5-(trifluoromethyl)phenyl]ethyl]amino}-2-chloro-5H,6H,7H-pyrrolo[3,4-d]pyrimidin-6-yl)cyclohexan-1-ol]: above 5 µM; for `C[C@@H](Nc1nc(Cl)nc2c1CN([C@H]1CC[C@H](C(=O)N(C)C)CC1)C2)c1cc(N)cc(C(F)(F)F)c1` [Example 19]: 1 to 5 µM.
In assay [1], `Cc1nc2c(c(N[C@H](C)c3cc(N)cc(C(F)(F)F)c3)n1)CN(C(=O)[C@H]1CCOC1)CC2` [Example 6, N-[(1R)-1-[3-amino-5-(trifluoromethyl)phenyl]ethyl]-2-methyl-6-(oxolane-3-carbonyl)-5H,6H,7H,8H-pyrido[4,3-d]pyrimidin-4-amine] displayed a half-inhibitory concentration (IC50) of 1 to 5 µM.
The same measure, in the same setting: the result for `C[C@@H](Nc1nc(Cl)nc2c1CN(C(=O)N1CCOCC1)C2)c1cc(N)cc(C(F)(F)F)c1` [Example 1, N-[(1R)-1-[3-amino-5-(trifluoromethyl)phenyl]ethyl]-2-chloro-6-(morpholine-4-carbonyl)-5H,6H,7H-pyrrolo[3,4-d]pyrimidin-4-amine] reads below 1 µM; that for `C[C@@H](Nc1nc(Cl)nc2c1CN(C(=O)C1CCOC1)C2)c1cc(N)cc(C(F)(F)F)c1` (stereo partly drawn) [Example 5, N-[(1R)-1-[3-amino-5-(trifluoromethyl)phenyl]ethyl]-2-chloro-6-(oxolane-3-carbonyl)-5H,6H,7H-pyrrolo[3,4-d]pyrimidin-4-amine], below 1 µM.
On to `Cc1nc2c(c(N[C@H](C)c3cc(N)cc(C(F)(F)F)c3)n1)CN(C(=O)N1CCOCC1)C2` [Example 4, N-[(1R)-1-[3-amino-5-(trifluoromethyl)phenyl]ethyl]-2-methyl-6-(morpholine-4-carbonyl)-5H,6H,7H-pyrrolo[3,4-d]pyrimidin-4-amine], for which the half-inhibitory concentration (IC50) in assay [1] is below 1 µM.
On the same count and under the same terms, the same measure for `Cc1nc2c(c(N[C@H](C)c3cc(N)cc(C(F)(F)F)c3)n1)CN(CC1CCOC1)C2` (stereo partly drawn) [Example 13]: 1 to 5 µM; for `Cc1nc2c(c(N[C@H](C)c3cc(N)cc(C(F)(F)F)c3)n1)CN(C(=O)N1CCOCC1)CC2` [Example 2, N-[(1R)-1-[3-amino-5-(trifluoromethyl)phenyl]ethyl]-2-methyl-6-(morpholine-4-carbonyl)-5H,6H,7H,8H-pyrido[4,3-d]pyrimidin-4-amine]: 1 to 5 µM; for `C[C@@H](Nc1nc(O)nc2c1CN(C(=O)N1CCOCC1)C2)c1cc(N)cc(C(F)(F)F)c1` [Example 15]: 1 to 5 µM.
Still for that read-out and setting: the result for `COc1nc2c(c(N[C@H](C)c3cc(N)cc(C(F)(F)F)c3)n1)CN(C(=O)N1CCOCC1)C2` [Example 14] reads below 1 µM; that for `Cc1nc2c(c(N[C@H](C)c3cc(N)cc(C(F)(F)F)c3)n1)CN(C(=O)C1CCN(C)CC1)C2` [Example 21], below 1 µM.
On the same count and under the same terms, the result for `C[C@@H](Nc1ncnc2c1CN(C(=O)N1CCOCC1)C2)c1cc(N)cc(C(F)(F)F)c1` [Example 16] reads below 1 µM.
Consider `C[C@@H](Nc1nc(Cl)nc2c1CCN(C(=O)C1CCOC1)CC2)c1cc(N)cc(C(F)(F)F)c1` (stereo partly drawn) [Example 7, N-[(1R)-1-[3-amino-5-(trifluoromethyl)phenyl]ethyl]-2-chloro-7-(oxolane-3-carbonyl)-5H,6H,7H,8H,9H-pyrimido[4,5-d]azepin-4-amine], for which the IC50 in assay [1] was in the range of 1 to 5 µM.
Take `C[C@@H](Nc1ncnc2c1CN(C(=O)C1CCN(C)CC1)C2)c1cc(N)cc(C(F)(F)F)c1` [Example 17]: the IC50 in assay [1] is below 1 µM.
For orientation: Kd means the concentration at which binding is half-saturated. In the case of `C[C@@H](Nc1nc(Cl)nc2c1CN(C(=O)C1(C)CCNCC1)C2)c1cccc(C(F)(F)F)c1` [Example 314], the IC50 in assay [2] is above 1 µM; in assay [4] it was below 1 µM. The dissociation constant (Kd) in assay [3] is below 0.4 µM.
Take `C[C@@H](Nc1nc(Cl)nc2c1CN([C@H]1CC[C@H](O)CC1)C2)c1cc(N)cc(C(F)(F)F)c1` [Example 9, trans-4-(4-{[(1R)-1-[3-amino-5-(trifluoromethyl)phenyl]ethyl]amino}-2-chloro-5H,6H,7H-pyrrolo[3,4-d]pyrimidin-6-yl)cyclohexan-1-ol]: the IC50 in assay [1] is above 5 µM.
With `COc1cccc(C(=O)N2Cc3nc(Cl)nc(N[C@H](C)c4cc(N)cc(C(F)(F)F)c4)c3C2)c1OC` [Example 107], the half-inhibitory concentration (IC50) in assay [2] and in assay [4] was below 1 µM throughout. In assay [3], the Kd is below 0.4 µM.
Turning to `C[C@@H](Nc1nc(Cl)nc2c1CN(C(=O)C(C)(C)C)C2)c1cc(N)cc(C(F)(F)F)c1` [Example 274], the IC50 in assay [2] and in assay [4] was below 1 µM each time. In addition, the Kd in assay [3] is below 0.4 µM.
For `C[C@@H](Nc1nc(Cl)nc2c1CN(C(=O)N1C[C@H]3CNCC[C@H]3C1)C2)c1cccc(C(F)(F)F)c1` [Example 378], the IC50 in assay [2] is above 1 µM; in assay [4], below 1 µM. For the same compound, the Kd in assay [3] is below 0.4 µM.
The like results for `C[C@@H](Nc1nc(Cl)nc2c1CN(S(=O)(=O)C1CCOCC1)C2)c1cc(N)cc(C(F)(F)F)c1` [Example 51] were, in that order, below 1 µM, below 1 µM and below 0.4 µM.
Take `C[C@@H](Nc1nc(Cl)nc2c1CN(C(=O)N1CCN(C)CC1)C2)c1cccc(C(F)F)c1F` [Example 430]: the concentration for half-maximal inhibition (IC50) in assay [2] and in assay [4] was below 1 µM throughout. In addition, the dissociation constant (Kd) in assay [3] was below 0.4 µM.
